In ChEMBL document CHEMBL5625223 (Eur J Med Chem, 2023):

Legend:
[1] = molecular target: T1, 5-hydroxytryptamine receptor 2A (Homo sapiens, UniProt P28223); experiment: Binding affinity to 5HT2A receptor (unknown origin) at 10 uM relative to control
[2] = molecular target: T2, 5-hydroxytryptamine receptor 2C (Homo sapiens, UniProt P28335); experiment: Binding affinity to 5HT2C receptor (unknown origin) assessed as inhibition constant
T2 sequence (P28335 whole entry): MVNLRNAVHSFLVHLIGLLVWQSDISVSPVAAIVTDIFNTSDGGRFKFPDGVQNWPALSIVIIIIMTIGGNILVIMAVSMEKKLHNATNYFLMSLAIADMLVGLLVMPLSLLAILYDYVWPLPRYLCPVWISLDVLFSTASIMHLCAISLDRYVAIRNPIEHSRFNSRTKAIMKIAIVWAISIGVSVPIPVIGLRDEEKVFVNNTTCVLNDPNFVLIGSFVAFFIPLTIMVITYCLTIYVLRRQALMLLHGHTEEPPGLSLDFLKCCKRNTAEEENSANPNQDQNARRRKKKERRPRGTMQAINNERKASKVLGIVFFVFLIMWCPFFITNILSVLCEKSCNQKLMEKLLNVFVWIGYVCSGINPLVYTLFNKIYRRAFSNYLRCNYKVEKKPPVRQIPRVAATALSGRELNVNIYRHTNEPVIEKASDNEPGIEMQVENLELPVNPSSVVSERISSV

[3] = molecular target: T3, 5-hydroxytryptamine receptor 2B (Homo sapiens, UniProt P41595); experiment: Binding affinity to 5HT2B receptor (unknown origin) assessed as inhibition constant
T3 sequence (P41595 whole entry): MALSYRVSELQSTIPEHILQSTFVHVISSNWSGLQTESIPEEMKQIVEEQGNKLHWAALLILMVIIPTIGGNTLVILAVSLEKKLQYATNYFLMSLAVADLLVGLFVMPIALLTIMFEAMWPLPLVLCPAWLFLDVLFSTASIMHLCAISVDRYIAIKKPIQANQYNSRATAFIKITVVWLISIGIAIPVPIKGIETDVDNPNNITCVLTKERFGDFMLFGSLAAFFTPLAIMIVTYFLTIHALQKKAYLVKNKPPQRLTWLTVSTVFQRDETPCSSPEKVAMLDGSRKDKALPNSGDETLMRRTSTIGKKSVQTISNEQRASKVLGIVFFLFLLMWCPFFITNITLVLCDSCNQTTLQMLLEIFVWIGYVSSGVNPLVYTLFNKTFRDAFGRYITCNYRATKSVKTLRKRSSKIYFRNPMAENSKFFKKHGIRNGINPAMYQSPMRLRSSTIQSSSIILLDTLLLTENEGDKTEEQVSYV

[4] = molecular target: T4, 5-hydroxytryptamine receptor 2C (Homo sapiens) (UniProt P28335); experiment: Binding affinity to 5HT2C receptor (unknown origin) at 10 uM relative to control
T4 sequence (whole entry): T2 sequence (P28335 whole entry)

[5] = molecular target: T1, 5-hydroxytryptamine receptor 2A; experiment: Displacement of [3H]ketanserin from human 5-HT2A receptor expressed in HEK293 cells at 10 uM incubated for 1 hr relative to control; type: cell-based
[6] = molecular target: T3, 5-hydroxytryptamine receptor 2B; experiment: Displacement of [3H]-LSD from human 5-HT2B receptor expressed in HEK cells assessed as inhibition constant incubated for 1 hr; type: cell-based
[7] = molecular target: T4, 5-hydroxytryptamine receptor 2C (Homo sapiens); experiment: Displacement of [3H]-Mesulergine from human 5-HT2C expressed in Flp-In-T-REx-293 cells at 10 uM incubated for 1 hr relative to control; type: cell-based
[8] = molecular target: Adenosine receptor A2a (Homo sapiens) (UniProt P29274); experiment: Displacement of […] from human A2AR expressed in HEK cells at 10 uM relative to control; type: cell-based
Sequence of Adenosine receptor A2a (Homo sapiens) (P29274 whole entry): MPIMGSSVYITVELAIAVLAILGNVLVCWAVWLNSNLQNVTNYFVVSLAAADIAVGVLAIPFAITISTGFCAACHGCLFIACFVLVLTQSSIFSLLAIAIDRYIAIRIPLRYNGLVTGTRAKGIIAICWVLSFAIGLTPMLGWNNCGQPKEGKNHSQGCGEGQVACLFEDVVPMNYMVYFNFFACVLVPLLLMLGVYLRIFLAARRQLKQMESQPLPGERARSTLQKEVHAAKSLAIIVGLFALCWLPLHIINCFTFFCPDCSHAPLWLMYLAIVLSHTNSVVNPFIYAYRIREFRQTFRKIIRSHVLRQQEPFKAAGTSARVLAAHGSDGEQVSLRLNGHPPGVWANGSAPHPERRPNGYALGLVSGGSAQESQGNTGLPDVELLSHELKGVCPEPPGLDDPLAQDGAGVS

[9] = molecular target: T2, 5-hydroxytryptamine receptor 2C; experiment: Displacement of [3H]-Mesulergine from human 5-HT2C expressed in Flp-In-T-REx-293 cells assessed as inhibition constant incubated for 1 hr; type: cell-based
Adenosine receptor A1 = molecular target: T5, Adenosine receptor A1 (Homo sapiens, UniProt P30542); experiment: Displacement of […] from human A1AR expressed in Flp-In-T-REx-293 cells assessed as inhibition constant; type: cell-based
T5 sequence (P30542 whole entry): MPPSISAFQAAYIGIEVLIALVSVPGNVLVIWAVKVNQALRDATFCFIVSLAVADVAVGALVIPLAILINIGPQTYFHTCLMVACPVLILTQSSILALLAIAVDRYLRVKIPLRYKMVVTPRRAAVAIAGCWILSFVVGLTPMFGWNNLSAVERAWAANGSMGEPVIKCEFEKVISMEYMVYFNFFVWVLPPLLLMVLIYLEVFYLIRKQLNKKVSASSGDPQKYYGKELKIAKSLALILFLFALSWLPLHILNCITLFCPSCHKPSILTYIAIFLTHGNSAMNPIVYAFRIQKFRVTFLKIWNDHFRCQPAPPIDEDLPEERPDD

[10] = molecular target: T6, Adenosine receptor A3 (Homo sapiens) (UniProt P0DMS8); experiment: Displacement of […] from human A3AR expressed in HEK cells at 10 uM relative to control; type: cell-based
T6 sequence (whole entry): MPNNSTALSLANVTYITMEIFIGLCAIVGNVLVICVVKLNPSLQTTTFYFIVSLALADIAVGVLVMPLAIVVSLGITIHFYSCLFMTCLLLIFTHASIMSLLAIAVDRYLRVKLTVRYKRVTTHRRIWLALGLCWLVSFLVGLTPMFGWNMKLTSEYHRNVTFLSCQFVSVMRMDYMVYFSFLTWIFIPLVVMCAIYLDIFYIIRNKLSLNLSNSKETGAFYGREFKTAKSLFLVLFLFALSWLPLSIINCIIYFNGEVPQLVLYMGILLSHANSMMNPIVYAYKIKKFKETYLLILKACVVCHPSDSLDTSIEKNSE

[11] = molecular target: T4, 5-hydroxytryptamine receptor 2C (Homo sapiens); conditions: Flp-In-T-REx-293, filed as antagonist, time 1.0 hrs
[12] = molecular target: T1, 5-hydroxytryptamine receptor 2A; conditions: Flp-In-T-REx-293, time 1.0 hrs
[13] = molecular target: T3, 5-hydroxytryptamine receptor 2B; experiment: Displacement of [3H]-LSD from human 5-HT2B receptor expressed in HEK cells at 10 uM incubated for 1 hr relative to control; type: cell-based
Adenosine receptor A3 = molecular target: T7, Adenosine receptor A3 (Homo sapiens, UniProt P0DMS8); experiment: Displacement of […] from human A3AR expressed in HEK cells assessed as inhibition constant; type: cell-based
T7 sequence (P0DMS8 whole entry): T6 sequence (whole entry)

[14] = molecular target: 5-hydroxytryptamine receptor 1D (Homo sapiens, UniProt P28221); experiment: Binding affinity to 5HT1D receptor (unknown origin) assessed as inhibition constant
Sequence of 5-hydroxytryptamine receptor 1D (P28221 whole entry): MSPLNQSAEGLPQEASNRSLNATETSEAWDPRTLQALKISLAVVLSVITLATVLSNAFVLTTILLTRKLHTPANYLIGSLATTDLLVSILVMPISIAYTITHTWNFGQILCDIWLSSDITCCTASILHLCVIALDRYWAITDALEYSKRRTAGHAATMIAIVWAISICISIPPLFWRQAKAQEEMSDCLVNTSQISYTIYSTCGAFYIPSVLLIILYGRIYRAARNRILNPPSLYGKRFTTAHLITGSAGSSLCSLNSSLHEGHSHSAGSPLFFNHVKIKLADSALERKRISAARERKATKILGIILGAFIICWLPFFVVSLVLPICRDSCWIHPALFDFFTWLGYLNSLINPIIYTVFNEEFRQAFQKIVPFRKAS

[15] = molecular target: T8, Alpha-2B adrenergic receptor (Homo sapiens, UniProt P18089); experiment: Binding affinity to alpha2B receptor (unknown origin) assessed as inhibition constant
T8 sequence (P18089 whole entry): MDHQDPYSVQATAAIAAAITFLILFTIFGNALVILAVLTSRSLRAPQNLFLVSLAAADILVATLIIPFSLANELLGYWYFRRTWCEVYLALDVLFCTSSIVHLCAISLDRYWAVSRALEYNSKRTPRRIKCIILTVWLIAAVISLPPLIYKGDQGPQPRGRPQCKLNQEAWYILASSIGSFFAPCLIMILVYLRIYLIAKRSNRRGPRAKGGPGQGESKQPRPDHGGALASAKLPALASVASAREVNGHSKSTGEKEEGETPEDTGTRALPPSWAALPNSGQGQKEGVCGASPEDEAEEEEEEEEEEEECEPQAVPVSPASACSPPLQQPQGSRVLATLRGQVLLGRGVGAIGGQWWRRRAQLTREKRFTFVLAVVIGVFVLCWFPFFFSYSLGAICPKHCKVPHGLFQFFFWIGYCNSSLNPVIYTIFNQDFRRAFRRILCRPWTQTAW

T1 sequence (P28223 whole entry): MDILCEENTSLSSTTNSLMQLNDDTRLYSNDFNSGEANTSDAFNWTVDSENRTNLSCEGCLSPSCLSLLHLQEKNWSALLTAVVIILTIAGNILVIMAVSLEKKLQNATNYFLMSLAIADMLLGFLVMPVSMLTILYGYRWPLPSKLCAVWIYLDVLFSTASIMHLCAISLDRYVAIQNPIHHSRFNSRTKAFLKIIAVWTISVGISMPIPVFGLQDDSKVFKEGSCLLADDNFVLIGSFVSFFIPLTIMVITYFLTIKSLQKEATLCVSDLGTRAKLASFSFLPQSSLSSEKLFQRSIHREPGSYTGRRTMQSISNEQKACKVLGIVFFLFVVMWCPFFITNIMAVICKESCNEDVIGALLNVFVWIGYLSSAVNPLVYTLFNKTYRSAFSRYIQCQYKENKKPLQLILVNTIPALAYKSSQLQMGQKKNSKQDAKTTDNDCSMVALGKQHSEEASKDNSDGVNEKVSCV

For O[C@H]1[C@H](n2cnc3c(NC(C4CCC4)C4CCC4)nc(Cl)nc32)[C@H]2C[C@@]2(CCl)[C@H]1O, the Activity [1] was 28% and the Ki [2] was 908 nM.

For O[C@@H]1[C@H](O)[C@@H]2C[C@@H]2[C@H]1n1ccc2c(NC(C3CC3)C3CC3)nc(I)nc21, the Activity [1] was 3%, the Ki [3] was 1300 nM and the pKi [3] was 5.88. The Activity [4] was 30%.

With CCCCSC[C@@]12C[C@@H]1[C@@H](n1cnc3c(NC(C4CCCC4)C4CCCC4)nc(Cl)nc31)[C@H](O)[C@@H]2O the Activity [5] was 22%, the Ki [6] was 549 nM and the Activity [7] was 27%. The Activity [8] was 8%.

Work on OC[C@@]12C[C@@H]1[C@@H](n1cnc3c(N[C@H](C4CCC4)C4CC4)nc(I)nc31)[C@H](O)[C@@H]2O yielded an Activity [5] of 29%, a Ki ([9]; read-out: Ki) of 670 nM and a Ki ([9]; read-out: pKi (converted)) of 603 nM. For the same compound, the Ki (Adenosine receptor A1) was 42.7 nM, the Activity ([8]; filed as agonist) was 50% and the Activity [10] was 34%. For the same compound, the pKb [11] was 6.54 and the pKb [12] was under 5.

In the case of O[C@@H]1[C@H](O)[C@@H]2C[C@@H]2[C@H]1n1cnc2c(NC(C3CCCC3)C3CCCC3)nc(Cl)nc21, the Activity [5] is reported as 22% and the Activity [8] is reported as 24%.

Compound Nc1nc(I)nc2c1ncn2[C@H]1[C@H](O)[C@H](O)[C@]2(CO)C[C@H]12 has an Activity [5] of -27%, an Activity [13] of -3% and an Activity [7] of -38%.

In the case of CSC[C@@]12C[C@@H]1[C@@H](n1cnc3c(NC(C4CC4)C4CC4)nc(Cl)nc31)[C@H](O)[C@@H]2O, the Activity [5] is reported as 19%, the Ki ([9]; read-out: Ki) is reported as 772 nM and the Ki (Adenosine receptor A1) is reported as 63.2 nM. For the same compound, the Ki (Adenosine receptor A3) was 932 nM.

For O[C@H]1[C@H](n2cnc3c(NC(C4CCCCC4)C4CCCCC4)nc(Cl)nc32)[C@H]2C[C@@]2(CF)[C@H]1O, the Ki ([9]; read-out: Ki) was 163 nM, the Activity [8] was -27% and the Ki (Adenosine receptor A3) was 5040 nM. It also gave a Ki [14] of 5500 nM and a Ki [15] of 3600 nM.

With CSC[C@@]12C[C@@H]1[C@@H](n1cnc3c(N)nc(I)nc31)[C@H](O)[C@@H]2O the Activity [5] was 0%, the Activity [13] was 12% and the Activity [7] was 12%. It also gave a Ki (Adenosine receptor A1) of 1350 nM and a Ki (Adenosine receptor A3) of 92.5 nM.

For NC[C@H]1O[C@@H](n2cnc3c(N[C@H](C4CCC4)C4CC4)nc(I)nc32)[C@H](O)[C@@H]1O, the Activity [5] was 9%, the Ki [6] was 178 nM and the Activity [7] was -1%. The Ki (Adenosine receptor A1) was 147 nM, the Activity [8] was 39% and the Activity ([10]; filed as agonist) was 56%.

CCOC(=O)[C@@]12C[C@@H]1[C@@H](n1cnc3c(NC(C4CCCC4)C4CCCC4)nc(Cl)nc31)[C@H](O)[C@@H]2O gave an Activity ([5]; filed as antagonist) of 42%, a Ki [6] of 239 nM and a Ki ([9]; read-out: Ki) of 139 nM. It also gave an Activity [8] of -22% and a Ki (Adenosine receptor A3) of 9720 nM.

In the case of OC[C@@]12C[C@@H]1[C@@H](n1cnc3c(NC(C4CCC4)C4CCC4)ncnc31)[C@H](O)[C@@H]2O, the Activity [1] is reported as 18%, the Ki [3] is reported as 186 nM and the Ki [2] is reported as 1020 nM.

OC[C@@]12C[C@@H]1[C@@H](n1cnc3c(NC(C4CC4)C4CC4)nc(I)nc31)[C@H](O)[C@@H]2O showed an Activity [5] of 35%, a Ki ([9]; read-out: Ki) of 249 nM and a Ki (Adenosine receptor A1) of 13.4 nM. For the same compound, the Activity ([8]; filed as agonist) was 63% and the Ki (Adenosine receptor A3) was 7810 nM.

For Ic1nc(N[C@H](C2CCC2)C2CC2)c2nc[nH]c2n1, the Activity [5] was -10%, the Ki [6] was 313 nM and the Activity [7] was 5%. It also gave a Ki (Adenosine receptor A1) of 648 nM.
